# Reference: paper PMC9732821, “Neurotrophic Activity and Its Modulation by Zinc Ion of a Dimeric Peptide Mimicking the Brain-Derived Neurotrophic Factor N-Terminal Region” (ACS Chemical Neuroscience, 2022)
# Tests used:
# AKT = AKT phosphorylation, in cell ELISA in differentiated SH-SY5Y cells; assay type: cell-based, human; conditions: 10 min; 150 ng/mL BDNF or 10 μM peptide; three independent replicas in duplicate
# Method: (§1) ERK and AKT phosphorylation were assessed in a 96-well plate format, performing an in cell ELISA assay as previously described 4. SH-SY5Y or HEK 293T cells were seeded at a density of 5.000 and 80.000 cell/well in 96 multiwell respectively, and the former were differentiated as describe above.
# (§2) Cells were treated as described for TrkB phosphorylation or reported in the graphs, then washed with 0.1% Triton X-100 in PBS and fixed with 4% paraformaldehyde. Cells were then permeabilized (1% BSA; 0.1% Triton X-100 in PBS) for 1 hour, at the end, cells were incubated overnight at 4°C with anti-phospho ERK (1:500, sc-7383, Santa Cruz) or phosphor AKT (1:500, sc-16646-R-, Santa Cruz) antibodies. Next day, after the incubation with HRP-conjugated secondary antibody (anti-mouse # 31430, Invitrogen; anti-rabbit A0545, Sigma-Aldrich) the TMB substrate was added and the absorbance was read at 450 nm. Cells were incubated with only the secondary antibody to obtain the aspecific binding (Blanks). The absorbances were normalized to the relative number of cells in each well that was determined using Crystal Violet staining.
# SH-SY5Y Immunofluorescence analysis
# SH-SY5Y cells were seeded on a 24-well plate (5.000 cell/well) and differentiated with retinoic acid as describe above. Cells were treated for 60’ in an unsupplemented medium with BDNF (150 ng/ml) or d-bdnf (10 µM) alone or in combination. Samples were then fixed (4% PFA, 5% sucrose/PBS, 15 min) and subjected to a non-permeabilizing immunofluorescence assay. Briefly, cells were incubated with the blocking solution (5% BSA/PBS) for 1 h at room temperature and incubated overnight at 4 °C with chicken anti-BDNF (1:100, G164A Promega) antibody diluted in 2.5% BSA/PBS. The next morning samples were incubated with an Alexa568-conjugated anti-chicken secondary antibody (1:500, Thermofisher) in 2.5% BSA/PBS for 2h at room temperature. Coverslips were mounted with Fluoroshield-DAPI (Sigma-Aldrich) and imaged with a laser scanning confocal microscope (Nikon A1, Eclipse Ti), using a 60× oil objective (NA 1 .40) and pinhole set to 1 AU. Images were acquired […]
# nm laser (emission window 545-645 nm). BDNF fluorescence intensity was analysed using FIJI ImageJ software. Briefly, the background intensity was subtracted from all red channel fields and an image threshold was applied to calculate the mean fluorescence intensity of the cells only. Results shown constitute the pool of fields stemming from two replicates.
# ReNCell cell culture, differentiation and immunofluorescence analysis
# ERK = ERK phosphorylation, in cell ELISA in differentiated SH-SY5Y cells; assay type: cell-based, human; conditions: for ERK phosphorylation increase vs unstimulated control: 10 min, 150 ng/mL BDNF or 10 μM peptide, three independent replicas in duplicate; for EC50 / maximal effect (Emax) of ERK phosphorylation: dose–response, differentiated SH-SY5Y, two independent replicas in duplicate; for maximal effect (Emax) of ERK phosphorylation: BDNF and d-bdnf not significantly different
# Method: Figure 1 Activation of the TrkB receptor by BDNF and its mimetic peptide ligands. (A) Schematic picture of the human TrkB receptor fused to the EGFP construct (hTrkB-EGFP); recombinant human mature BDNF (hBDNF); monomeric peptide, m-bdnf; dimeric peptide, d-bdnf; scrambled s-bdnf. (B) WB showing Tyr phosphorylation (p-Tyr, top) and total TrkB levels (bottom) in SH-SY5Y cells transfected with hTrkB-EGFP in the absence (ctrl) or presence of 10 min stimulation with 150 ng/mL BDNF or 10 μM m-bdnf, d-bdnf, or s-bdnf. Samples were immunoprecipitated (IP) with the anti-GFP antibody before WB. The relative density of the bands is reported on the right of the blots, as mean ± SEM of five (BDNF) and four (peptides) independent replicas; each p-Tyr band density was divided for the respective TrkB band and normalized to the ctrl signal (***p < 0.001, *p < 0.05 vs ctrl, according to one-way ANOVA with Bonferroni’s multiple comparison test). (C) Scatter dot plot of ERK (left) and AKT (right) phosphorylation levels detected in differentiated SH-SY5Y cells, after stimulation with the same treatments as in (B). Phosphorylation levels were normalized to the cell number and reported as percentage versus the ctrl. Data ± SD were pooled from three independent replicas performed in duplicate. (D) ERK phosphorylation dose–response curve of BDNF and d-bdnf. Data ± SEM were pooled from two independent replicas performed in duplicate. (E) Intensity image of a TrkB-EGFP transfected cell (scale bar 10 μm). White square defines a region of the image that contains both the cell membrane and the background signal. […] The dashed black lines identify the mean values of B for the monomer and the dimer, as indicated. (G) Bar graph of mean ± SD ‘B-1’ values retrieved from N&B analysis for all the different conditions measured. The horizontal dashed lines indicate the ‘B-1’ average values assigned to the monomer (based on data from f-EGFP) and the dimer. Data (round circles) were pooled from two independent experiments. A one-way ANOVA with Dunnett’s multiple comparisons test was applied to compare data to the f-EGFP reference (*p < 0.05, ***p < 0.001, ****p < 0.0001). […]
# as §1
# as §2, with “staining. […]” for “staining.”
# °C with chicken anti-BDNF (1:100, G164A Promega) antibody diluted in 2.5% BSA/PBS. The next morning samples were incubated with an Alexa568-conjugated anti-chicken secondary antibody (1:500, Thermofisher) in 2.5% BSA/PBS for 2h at room temperature. Coverslips were mounted with Fluoroshield-DAPI (Sigma-Aldrich) and imaged with a laser scanning confocal microscope (Nikon A1, Eclipse Ti), using a 60× oil objective (NA 1 .40) and pinhole set to 1 AU. Images were acquired […]
# nm laser (emission window 545-645 nm). BDNF fluorescence intensity was analysed using FIJI ImageJ software. Briefly, the background intensity was subtracted from all red channel fields and an […]
Molecule,AKT phosphorylation increase vs unstimulated control (AKT),ERK phosphorylation increase vs unstimulated control (ERK),EC50 (ERK) [µM],maximal effect (Emax) of ERK phosphorylation (ERK),EC50 (ERK; referred to the monomer form) [µM]
"HSDPARRGELSV-NH2 [m-bdnf, linear peptide fragment encompassing the first 12 amino acids of the mature NT N-terminal]",only BDNF and d-bdnf were able to induce a significant ERK and AKT phosphorylation increase,only BDNF and d-bdnf were able to induce a significant ERK and AKT phosphorylation increase,,,
HSDPARRGELSVC-C-VSLEGRRAPDSH (disulfide) [d-bdnf],significant ERK and AKT phosphorylation increase,significant ERK and AKT phosphorylation increase,13.6 ± 3.87,227.3 ± 6.3,
SRAGPHLRDVSE-NH2 [s-bdnf],only BDNF and d-bdnf were able to induce a significant ERK and AKT phosphorylation increase,only BDNF and d-bdnf were able to induce a significant ERK and AKT phosphorylation increase,,,
"brain-derived neurotrophic factor (protein, UniProt P23560 1-247, looked up, full-length, full-length human BDNF produced recombinantly in Escherichia coli) MTILFLTMVISYFGCMKAAPMKEANIRGQGGLAYPGVRTHGTLESVNGPKAGSRGLTSLADTFEHVIEELLDEDQKVRPNEENNKDADLYTSRVMLSSQVPLEPPLLFLLEEYKNYLDAANMSMRVRRHSDPARRGELSVCDSISEWVTAADKKTAVDMSGGTVTVLEKVPVSKGQLKQYFYETKCNPMGYTKEGCRGIDKRHWNSQCRTTQSYVRALTMDSKKRIGWRFIRIDTSCVCTLTIKRGR",significant ERK and AKT phosphorylation increase,significant ERK and AKT phosphorylation increase,,237.1 ± 5.0,0.00069 ± 0.00024
